Source: patent US9266921B2, “PGC-1α-modulating peptides” (Lipotec, S.A., priority 2011, dated 2016)

Columns and labels:
[1] = test system: subcutaneous human pre-adipocytes; test: Accumulation of lipids in subcutaneous human pre-adipocytes (AdipoRed); assay type: cell-based; conditions: peptide 0.1 mg/mL in PDM-2, 10 days, PGM-2 = 0%, PDM-2 = 100%
Protocol: The levels of accumulation of lipids in subcutaneous human pre-adipocytes were quantified using the AdipoRed™ (Lonza) reagent. 100,000 cells were cultivated per well in PGM™-2 medium at a final volume of 100 μL. After 24 hours, the differentiation from pre-adipocytes to mature adipocytes was induced changing the medium to PDM-2 in the presence of the different peptides at 0.1 mg/mL. After 10 days of treatment with the peptides in differentiation medium, the quantity of intracellular lipids was evaluated using the AdipoRed™ reagent following the manufacturer's instructions measuring the fluorescence of the samples (length of the excitation wave 485 nm and emission 535 nm) after adding the AdipoRed™ reagent. The fluorescence values were corrected with regards to the basal fluorescence and were normalized with regards to the maximum differentiation controls (PDM-2 medium, maximum accumulation of lipids) and minimum differentiation (PGM™-2 medium, minimum accumulation of lipids).

human PGC-1α promoter = test: Modulation of the human PGC-1α promoter activity (luciferase reporter, Hep G2); assay type: cell-based; conditions: Hep G2 transfected with luciferase under human PGC-1α promoter; peptide 0.5 mg/mL, 24 hours; normalized to carrier = 100%
Protocol: The modulation capacity of the promoter of human PGC-1α is evaluated by the peptides in the invention in the hepatocellular Hep G2 carcinoma cell line transfected with the luciferase gene under the regulation of the human PGC-1α promoter. The cells are seeded at a density of 20,000 cells/25 cm^2 plate) and incubated for 24 hours in RPMI-1640 complete medium, after which the peptides of the invention are added at 0.5 mg/mL and are incubated for another 24 hours. The RPMI-1640 complete medium (carrier) is used as a negative control. The measurement of the promoter's activity is carried out using the Steady-Glo® Luciferase Assay System (PROMEGA) kit following the manufacturer's instructions. The luminescence values are read on a luminometer […] and the activity of the promoter is determined, which is normalized with regards to the values of the negative control.

PGC-1α gene = test: Transcription of the PGC-1α gene, quantitative real time PCR in differentiating pre-adipocytes; assay type: cell-based; conditions: subcutaneous human adipocytes; peptide 0.1 mg/mL in PDM-2, 10 days; PGM-2 = 0%, PDM-2 = 100%
Protocol: The expression levels of the gene PGC-1α are measured by PCR in quantitative real time. A cell line of subcutaneous human pre-adipocytes is incubated in PGM™-2 medium at a density of 100,000 cells/well in a volume of 100 μL for 24 hours. Differentiation is induced by changing the medium to PDM-2 in the presence of the peptides Ac-L-Ser-L-Ile-L-Tyr-L-Val-L-Ala-L-Thr-NH2 (Ac-SEQ ID NO. 1-NH2) and Ac-L-Ser-L-Val-L-Val-L-Val-L-Arg-L-Thr-NH2 (Ac-SEQ ID NO. 2-NH2) at 0.1 mg/mL for 10 days, after which the cells were lysed and the RNA is extracted. The PCR is carried out in quantitative real time using the Taqman® Gene Expression Cells-to-CT (Applied Biosystems) kit according to the manufacturer's instructions and with the appropriate probes (TaqMan® Hs01016719_m1 probe for the PGC-1α gene and Taqman® Hs99999901_s1 probe for the eukaryotic ribosomal subunit 18S, the endogenous control of expression) and the values are normalized with regards to the maximum differentiation controls (PDM-2 medium, maximum quantity of PGC-1α mRNA) and minimal differentiation (PGM™-2 medium, minimum quantity of PGC-1α mRNA).

cellulitis (thigh) = test: Reduction of cellulitis in volunteers, length of the dermo-hypodermic junction line (ultrasound); assay type: in vivo, human; conditions: after 21 days of treatment
Source text: 20 Caucasian volunteers between the age of 25 and 45, with healthy skin and affected by cellulitis levels I-III according to the pinch test applied the composition from Example 15 to one thigh and a placebo composition (the same composition from Example 15 without the peptide) to the other thigh, twice a day for 21 days. The length of the dermo-hypodermic junction line was instrumentally assessed using the Ultrasound Scanner Dermascan C® (Cortex Technology, Denmark) at the beginning of the study and at the end of the study (21 days). The measurement of the length of the dermo-hypodermic junction line is related to the formation of cellulitis and skin irregularities [Quatresooz P et al., “Cellulite histopathology and related mechanobiology”, (2006), Int. J. Cosm. Sci., 28, 207-210]. A reduction in the length of the dermo-hypodermic junction line leads to softer and more regular skin, and as such cellulitis will be less visible. The statistical analysis of the evolution of the parameters measured during the study was carried out using the Student's t-test. The statistical significance threshold was established at 5%.

| Substance | % Accumulation of intracellular lipids [1] [%] | Activity of the PGC-1α promoter (%) (human PGC-1α promoter) | % relative quantity of PGC-1α mRNA (PGC-1α gene) [%] | effect on the length of the dermo-hypodermic junction line and cellulitis (cellulitis (thigh)) |
| --- | --- | --- | --- | --- |
| Ac-L-His-L-Val-L-Tyr-L-Val-L-Arg-L-Thr-NH2 (Ac-HVYVRT-NH2) [Ac-SEQ ID NO. 12-NH2] | 84 | 114 |  |  |
| Ac-L-Ser-L-Val-L-Val-L-Val-L-Ala-L-Thr-NH2 (Ac-SVVVAT-NH2) [Ac-SEQ ID NO. 9-NH2] |  | 62 |  |  |
| Ac-L-His-L-Val-L-Val-L-Val-L-Arg-L-Val-NH2 (Ac-HVVVRV-NH2) [Ac-SEQ ID NO. 39-NH2] |  | 186 |  |  |
| Ac-L-Ser-L-Val-L-Tyr-L-Val-L-Arg-L-Val-NH2 (Ac-SVYVRV-NH2) [Ac-SEQ ID NO. 36-NH2] |  | 136 |  |  |
| Ac-L-Ser-L-Val-L-Tyr-L-Val-Gly-L-Thr-NH2 (Ac-SVYVGT-NH2) [Ac-SEQ ID NO. 20-NH2] |  | 76 |  |  |
| Ac-L-Ser-L-Ile-L-Tyr-L-Val-L-Ala-L-Val-NH2 (Ac-SIYVAV-NH2) [Ac-SEQ ID NO. 26-NH2] |  | 40 |  |  |
| Ac-L-Ser-L-Val-L-Val-L-Val-L-Ala-L-Val-NH2 (Ac-SVVVAV-NH2) [Ac-SEQ ID NO. 32-NH2] |  | 82 |  |  |
| Ac-L-His-L-Val-L-Val-L-Val-L-Ala-L-Thr-NH2 (Ac-HVVVAT-NH2) [Ac-SEQ ID NO. 8-NH2] |  | 89 |  |  |
| Ac-L-His-L-Ile-L-Val-L-Val-L-Ala-L-Val-NH2 (Ac-HIVVAV-NH2) [Ac-SEQ ID NO. 29-NH2] |  | 81 |  |  |
| Ac-L-Ser-L-Ile-L-Tyr-L-Val-L-Ala-L-Thr-NH2 (Ac-SIYVAT-NH2) [Ac-SEQ ID NO. 1-NH2] | 33 | 57 | 63 | induces a reduction in the length of the dermo-hypodermic junction line |
| Ac-L-Ser-L-Ile-L-Tyr-L-Val-Gly-L-Thr-NH2 (Ac-SIYVGT-NH2) [Ac-SEQ ID NO. 18-NH2] |  | 64 |  |  |
| Ac-L-Ser-L-Val-L-Tyr-L-Val-L-Arg-L-Thr-NH2 (Ac-SVYVRT-NH2) [Ac-SEQ ID NO. 13-NH2] | 79 | 131 |  |  |
| Ac-L-Ser-L-Ile-L-Tyr-L-Val-Gly-L-Val-NH2 (Ac-SIYVGV-NH2) [Ac-SEQ ID NO. 42-NH2] |  | 64 |  |  |
| Ac-L-Ser-L-Val-L-Tyr-L-Val-L-Ala-L-Thr-NH2 (Ac-SVYVAT-NH2) [Ac-SEQ ID NO. 5-NH2] | 48 | 69 |  |  |
| Ac-L-Ser-L-Val-L-Val-L-Val-Gly-L-Thr-NH2 (Ac-SVVVGT-NH2) [Ac-SEQ ID NO. 24-NH2] |  | 90 |  |  |
| Ac-L-His-L-Ile-L-Val-L-Val-L-Arg-L-Val-NH2 (Ac-HIVVRV-NH2) [Ac-SEQ ID NO. 37-NH2] |  | 118 |  |  |
| Ac-L-Ser-L-Ile-L-Val-L-Val-Gly-L-Val-NH2 (Ac-SIVVGV-NH2) [Ac-SEQ ID NO. 46-NH2] | 38 | 78 |  |  |
| Ac-L-Ser-L-Val-L-Val-L-Val-Gly-L-Val-NH2 (Ac-SVVVGV-NH2) [Ac-SEQ ID NO. 48-NH2] | 37 | 75 |  |  |
